Reference: patent publication US6761896B1, “Skin cosmetic care system and method” (Unilever Home & Personal Care USA, division of Conopco, Inc., priority 1998, dated 2004)
Read-outs that look alike come from different tables or passages of the source.

Tested on: pig epidermal cells
Test: DNA synthesis (3H-thymidine) of pig skin organ cultures, epidermis
Format: cell-based
Conditions: for activity at 20 µM / activity at 200 µM / activity at 2000 µM: Sus scrofa, read-out: DNA synthesis AS % OF CONTROL
Method: Freshly excised 2-3 week old piglet skins were obtained from Buckshire Farms, Pa. The pig skins were washed exhaustively first with soap and then with 10× antibiotic containing medium (penicillin, streptomycin). The pig skins were then dermatomed at 200 microns thickness. Seven (7) mm punch biopsies were made from these washed pig skins. The biopsies are then washed again with the 10× antibiotic medium and finally with normal DMEM (2 washes). Three (3) biopsies were incubated in each transwell plates, epidermal side up, with 1 ml of serum free DMEM fed from the bottom of the plates. Experiments were started 3 days after the biopsies were equilibrated under these conditions. Three (3) days after equilibrating the pig skin organ cultures prepared as described above, the medium was removed, 1 ml of fresh medium was added, and the wells were treated with different concentrations of lactic acid by adding from a 100 fold concentrated stock in water, directly into the medium. Simultaneous with the addition of lactic acid, selected cultures were also exposed to the South or North pole of a bar magnet or to the Bioflex magnet. The magnets were placed on top of the culture dish to expose the epidermis directly (the organ culture is carried out with the epidermis side on top). Three (3) days later, medium was changed, lactic acid was re-added, and 10 uCi ^3H-thymidine was added to each well. Plates were incubated for a further 24 hrs. At the end of the incubation period, biopsies were removed, washed in PBS for 1 hr with shaking, and incubated overnight in 10 ml of 2M sodium bromide with shaking to split the epidermis from the dermis. The biopsies were washed with PBS, and the epidermis was peeled off from dermis carefully using a scalpel. The epidermis and dermis were digested with 1 ml of 0.5N NaOH overnight at 50 C, 200 ul was used for counting the radioactivity. The DNA synthesis rate was calculated as cpm/7 mm punch biopsy for dermis or epidermis and in some experiments expressed also as % of controls. All organ culture experiments were conducted with at least 6 replicates, and the mean+/−standard deviation was calculated for statistical analysis using Students t-test.

[1] = Example 5, 0.02 mM LA + South pole of bar magnet
[2] = Example 5, 0.02 mM LA, no magnet
[3] = Example 5, 0.2 mM LA + South pole of bar magnet
[4] = Example 5, 0.2 mM LA, no magnet
[5] = Example 5, 2.0 mM LA + South pole of bar magnet
[6] = Example 5, 2.0 mM LA, no magnet
[7] = Example 6, 0.2 mM LA + North pole
[8] = Example 6, 0.2 mM LA + South pole
[9] = Example 6, 0.2 mM LA, no magnet

## CC(O)C(=O)O (stereo not drawn) [LA, lactic acid]
[1]
  DNA SYNTHESIS (CPM/BIOPSY) MEAN +/- STD: 7915 +/− 2807 CPM/BIOPSY
  activity at 20 µM: 182%
[2]
  DNA SYNTHESIS (CPM/BIOPSY) MEAN +/- STD: 4670 +/− 497 CPM/BIOPSY
  activity at 20 µM: 107%
[3]
  DNA SYNTHESIS (CPM/BIOPSY) MEAN +/- STD: 8402 +/− 512 CPM/BIOPSY
  activity at 200 µM: 193%
[4]
  DNA SYNTHESIS (CPM/BIOPSY) MEAN +/- STD: 5030 +/− 958 CPM/BIOPSY
  activity at 200 µM: 115%
Example 5, 2 mM LA + South pole
  epidermal proliferation, % over control: 165%
[5]
  DNA SYNTHESIS (CPM/BIOPSY) MEAN +/- STD: 11523 +/− 2123 CPM/BIOPSY
  activity at 2000 µM: 265%
Example 5, 2 mM LA + South pole vs additive response
  synergy of LA and South pole on epidermal proliferation: Synergies were observed
Example 5, 2 mM LA alone
  epidermal proliferation, % over control: 43%
[6]
  DNA SYNTHESIS (CPM/BIOPSY) MEAN +/- STD: 6216 +/− 1035 CPM/BIOPSY
  activity at 2000 µM: 143%
Example 5, 0.02 and 0.2 mM lactic acid, no magnet
  effect on epidermal proliferation: no significant effect
[7]
  DNA SYNTHESIS (CPM/BIOPSY) MEAN +/- STD: 69726 +/− 29913 CPM/BIOPSY
  proliferative response, % over control: 112%
  activity at 200 µM: 211%
Example 6, 0.2 mM LA + North pole vs north alone control
  synergy of LA with North pole on epidermal proliferation: not synergistic
[8]
  DNA SYNTHESIS (CPM/BIOPSY) MEAN +/- STD: 81393 +/− 11738 CPM/BIOPSY
  proliferative response, % over control: 146%
  activity at 200 µM: 246%
Example 6, 0.2 mM LA + South pole vs LA alone or South pole alone
  synergy of LA with South pole on epidermal proliferation: synergistic
[9]
  DNA SYNTHESIS (CPM/BIOPSY) MEAN +/- STD: 41076 +/− 24767 CPM/BIOPSY
  activity at 200 µM: 124%
Example 6, 0.2 mM Lactic acid alone
  effect on epidermal proliferation: no significant effect
